{"source": "paper PMC6199744", "about": "“Development of Chemical Proteomics for the Folateome and Analysis of the Kinetoplastid Folateome” (ACS Infectious Diseases, 2018)", "assay_type_in_all_cases": "binding", "key": {"[1]": {"target": "T1, HeLa cell extract proteins (Homo sapiens, UniProt Q10570)", "T1 construct": "endogenous in cells; host or cells: HeLa cell extract", "T1 sequence (Q10570 1-1443)": "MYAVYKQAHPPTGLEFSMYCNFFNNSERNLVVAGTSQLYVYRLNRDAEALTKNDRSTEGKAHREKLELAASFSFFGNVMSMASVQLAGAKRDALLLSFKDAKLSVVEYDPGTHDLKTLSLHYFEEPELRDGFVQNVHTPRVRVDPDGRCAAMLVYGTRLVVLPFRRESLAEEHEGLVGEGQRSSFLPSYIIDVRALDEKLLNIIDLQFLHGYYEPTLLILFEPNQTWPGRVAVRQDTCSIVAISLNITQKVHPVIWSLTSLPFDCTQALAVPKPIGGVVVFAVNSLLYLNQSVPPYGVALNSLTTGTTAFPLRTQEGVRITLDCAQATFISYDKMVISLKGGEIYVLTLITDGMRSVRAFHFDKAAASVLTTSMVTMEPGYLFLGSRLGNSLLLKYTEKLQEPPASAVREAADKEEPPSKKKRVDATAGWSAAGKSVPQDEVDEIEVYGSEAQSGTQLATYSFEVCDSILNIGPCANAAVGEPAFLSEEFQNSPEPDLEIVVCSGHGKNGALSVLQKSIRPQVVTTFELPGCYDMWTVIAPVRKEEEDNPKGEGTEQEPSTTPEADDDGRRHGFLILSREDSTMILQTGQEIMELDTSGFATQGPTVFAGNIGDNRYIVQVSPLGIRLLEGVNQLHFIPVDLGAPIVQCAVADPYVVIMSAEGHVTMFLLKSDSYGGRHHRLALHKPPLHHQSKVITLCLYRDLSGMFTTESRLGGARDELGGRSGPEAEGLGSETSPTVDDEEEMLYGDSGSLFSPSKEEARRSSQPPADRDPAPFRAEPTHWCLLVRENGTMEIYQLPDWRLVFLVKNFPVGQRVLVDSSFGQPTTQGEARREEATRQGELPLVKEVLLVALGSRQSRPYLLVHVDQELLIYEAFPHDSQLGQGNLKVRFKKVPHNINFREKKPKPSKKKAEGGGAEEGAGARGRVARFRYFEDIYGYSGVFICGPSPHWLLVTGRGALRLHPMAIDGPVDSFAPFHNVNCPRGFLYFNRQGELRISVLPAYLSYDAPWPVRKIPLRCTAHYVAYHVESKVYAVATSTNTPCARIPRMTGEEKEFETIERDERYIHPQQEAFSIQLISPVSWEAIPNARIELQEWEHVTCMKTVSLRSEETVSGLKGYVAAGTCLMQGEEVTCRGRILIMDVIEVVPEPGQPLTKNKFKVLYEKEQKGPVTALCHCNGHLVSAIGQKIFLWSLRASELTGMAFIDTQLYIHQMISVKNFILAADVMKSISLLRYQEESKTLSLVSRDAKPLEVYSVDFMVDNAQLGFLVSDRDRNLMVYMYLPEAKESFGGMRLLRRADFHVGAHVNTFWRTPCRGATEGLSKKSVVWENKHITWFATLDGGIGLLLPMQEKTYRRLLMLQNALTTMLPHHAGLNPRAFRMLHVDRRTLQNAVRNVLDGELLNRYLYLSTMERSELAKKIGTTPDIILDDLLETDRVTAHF"}, "[2]": {"target": "T2, HeLa cell extract proteins (Homo sapiens, UniProt Q8NBJ5)", "T2 construct": "endogenous in cells; host or cells: HeLa cell extract"}, "[3]": {"target": "T3, HeLa cell extract proteins (Homo sapiens, UniProt P35237)", "T3 construct": "endogenous in cells; host or cells: HeLa cell extract", "T3 sequence (P35237 1-376)": "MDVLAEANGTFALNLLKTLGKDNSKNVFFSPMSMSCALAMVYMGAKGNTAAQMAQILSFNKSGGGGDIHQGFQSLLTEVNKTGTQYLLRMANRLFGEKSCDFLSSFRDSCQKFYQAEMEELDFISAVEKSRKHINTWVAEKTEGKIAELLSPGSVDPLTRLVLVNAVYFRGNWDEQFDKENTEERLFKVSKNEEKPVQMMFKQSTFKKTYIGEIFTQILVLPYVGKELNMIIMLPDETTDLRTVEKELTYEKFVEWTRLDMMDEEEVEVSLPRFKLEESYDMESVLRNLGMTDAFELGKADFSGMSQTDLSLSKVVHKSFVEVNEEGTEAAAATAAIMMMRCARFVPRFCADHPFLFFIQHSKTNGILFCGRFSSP", "details": "protein SERPINB6; HeLa"}, "[4]": {"target": "T4, HeLa cell extract proteins (Homo sapiens, UniProt P36776)", "T4 construct": "endogenous in cells; host or cells: HeLa cell extract", "T4 sequence (P36776 68-959)": "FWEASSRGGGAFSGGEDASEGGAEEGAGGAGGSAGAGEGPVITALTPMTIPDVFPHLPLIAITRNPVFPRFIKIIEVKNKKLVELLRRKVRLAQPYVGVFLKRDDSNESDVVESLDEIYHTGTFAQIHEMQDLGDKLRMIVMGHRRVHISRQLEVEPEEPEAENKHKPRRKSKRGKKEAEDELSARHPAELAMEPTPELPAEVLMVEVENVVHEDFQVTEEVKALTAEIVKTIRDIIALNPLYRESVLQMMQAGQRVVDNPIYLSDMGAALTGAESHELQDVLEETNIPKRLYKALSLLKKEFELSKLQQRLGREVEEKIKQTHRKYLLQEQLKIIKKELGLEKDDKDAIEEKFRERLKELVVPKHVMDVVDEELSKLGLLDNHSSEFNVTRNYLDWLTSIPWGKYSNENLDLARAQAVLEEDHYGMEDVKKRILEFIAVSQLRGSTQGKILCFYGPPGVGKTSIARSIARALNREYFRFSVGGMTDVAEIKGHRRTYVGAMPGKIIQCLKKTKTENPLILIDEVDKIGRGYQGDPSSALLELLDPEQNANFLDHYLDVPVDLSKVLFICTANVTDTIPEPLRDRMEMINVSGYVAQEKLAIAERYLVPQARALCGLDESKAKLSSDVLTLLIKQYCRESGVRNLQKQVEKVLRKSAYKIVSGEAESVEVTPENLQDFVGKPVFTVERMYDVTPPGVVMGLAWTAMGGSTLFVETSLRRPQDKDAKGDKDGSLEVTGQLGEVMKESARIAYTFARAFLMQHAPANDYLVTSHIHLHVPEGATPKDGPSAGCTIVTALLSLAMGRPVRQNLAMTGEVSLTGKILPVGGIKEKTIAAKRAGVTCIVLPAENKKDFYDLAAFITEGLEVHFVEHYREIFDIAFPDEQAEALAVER", "details": "protein LONP1; HeLa"}}, "note": "Read-outs that look alike come from different tables or passages of the source.", "data": [{"smiles": "Nc1nc2c(c(=O)[nH]1)N(C=O)C(CNc1ccc(C(=O)N[C@@H](CCC(=O)O)C(=O)O)cc1)CN2", "note": "(some centres unmarked) [LEU, leucovorin]", "values": [{"measurement": "fold changes relative to vehicle control", "setting": "[1]; HeLa, captured protein CPSF1", "result": 0.95}, {"measurement": "fold changes relative to vehicle control", "setting": "[2]; HeLa, captured protein GLT25D1", "result": 0.95}]}, {"smiles": "Nc1nc2[nH]cc(CCc3ccc(C(=O)N[C@@H](CCC(=O)O)C(=O)O)cc3)c2c(=O)[nH]1", "note": "[PTX, pemetrexed]", "values": [{"measurement": "fold changes relative to vehicle control", "setting": "[1]", "result": 0.88}, {"measurement": "fold changes relative to vehicle control", "setting": "[2]", "result": 0.83}]}, {"smiles": "CCCCCCOc1ccc(Cc2cnc(N)nc2N)cc1", "note": "[compound 1]", "values": [{"measurement": "fold changes relative to vehicle control", "setting": "[3]", "result": 1.14}, {"measurement": "fold changes relative to vehicle control", "setting": "[4]", "result": 0.86}]}, {"smiles": "CCCCCCOc1cccc(Cc2cnc(N)nc2N)c1", "note": "[compound 2]", "values": [{"measurement": "fold changes relative to vehicle control", "setting": "[3]", "result": 1.61}, {"measurement": "fold changes relative to vehicle control", "setting": "[4]", "result": 1.41}]}, {"smiles": "Nc1nc2cccc(-c3ccccc3)c2n1Cc1ccc(Cl)c(Cl)c1", "note": "[compound 3]", "values": [{"measurement": "fold changes relative to vehicle control", "setting": "[3]", "result": 0.92}, {"measurement": "fold changes relative to vehicle control", "setting": "[4]", "result": 1.16}]}, {"smiles": "NCCOCCOCC(=O)Nc1nc2ncc(CNc3ccc(C(=O)NC(CCC(=O)O)C(=O)O)cc3)nc2c(=O)[nH]1", "note": "(centres unmarked) [compound 6]", "values": [{"measurement": "fold changes relative to vehicle control", "setting": "[1]; HeLa, captured protein CPSF1", "result": 0.97}, {"measurement": "fold changes relative to vehicle control", "setting": "[2]; HeLa, captured protein GLT25D1", "result": 0.93}]}, {"smiles": "NCCCNc1ccc(C(=O)NC(CCC(=O)O)C(=O)O)cc1", "note": "(centres unmarked) [compound 7]", "values": [{"measurement": "fold changes relative to vehicle control", "setting": "[1]; HeLa, captured protein CPSF1", "result": 0.93}, {"measurement": "fold changes relative to vehicle control", "setting": "[2]; HeLa, captured protein GLT25D1", "result": 0.97}]}]}
